# Results as given in ChEMBL document CHEMBL1201862, “PubChem BioAssay data set” (2004).
#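 96-well plates; 48 h exposure; 5 concentrations. Endpoints by linear interpolation between flanking doses. Not reached: highest tested concentration assigned. The concentration for 50% growth inhibition is given as GI50.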 Calls of active or inactive are those of the source. No stated cut-off is given here; in the data, active = GI50 up to about 1.1 µM and inactive = higher.
# How the values were obtained:
# Experiment in all cases: DTP human tumour cell line panel, 48 h
# NCI-H226 = test system: NCI-H226
# CCRF-CEM = test system: CCRF-CEM
# SW-620 = test system: SW-620
# LOX IMVI = test system: LOX IMVI
# A549 = test system: A549
# SR = test system: SR
# RXF 393 = test system: RXF 393
# NCI-H522 = test system: NCI-H522
# U-251 = test system: U-251
# 786-0 = test system: 786-0
# CAKI-1 = test system: CAKI-1
# SNB-19 = test system: SNB-19
# HOP-62 = test system: HOP-62
# SK-MEL-5 = test system: SK-MEL-5
# OVCAR-3 = test system: OVCAR-3
# HCT-15 = test system: HCT-15
# OVCAR-4 = test system: OVCAR-4
# OVCAR-5 = test system: OVCAR-5
SMILES,GI50 (NCI-H226),GI50 (CCRF-CEM),GI50 (SW-620),GI50 (LOX IMVI),GI50 (A549),GI50 (SR),GI50 (RXF 393),GI50 (NCI-H522),GI50 (U-251),GI50 (786-0),GI50 (CAKI-1),GI50 (SNB-19),GI50 (HOP-62),GI50 (SK-MEL-5),GI50 (OVCAR-3),GI50 (HCT-15) [µM],GI50 (OVCAR-4),GI50 (OVCAR-5)
CC(=O)OC1COC(Nc2ccc(C(C)=O)cc2)C(OC(C)=O)C1OC(C)=O (stereo not given),> 100 µM (inactive),> 100 µM (inactive),> 100 µM (inactive),> 100 µM (inactive),> 100 µM (inactive),> 100 µM (inactive),> 100 µM (inactive),> 100 µM (inactive),> 100 µM (inactive),> 100 µM (inactive),> 100 µM (inactive),> 100 µM (inactive),> 100 µM (inactive),> 100 µM (inactive),> 100 µM (inactive),> 100,> 100 µM (inactive),
c1ccc(SC(CCCCOC2CCCCO2)Sc2ccccc2)cc1 (stereo not given),,29.2 µM (inactive),76.4 µM (inactive),65.5 µM (inactive),93.3 µM (inactive),,38.8 µM (inactive),18.4 µM (inactive),> 100 µM (inactive),> 100 µM (inactive),92.7 µM (inactive),> 100 µM (inactive),> 100 µM (inactive),30.5 µM (inactive),56.5 µM (inactive),91.2,55.6 µM (inactive),> 100 µM (inactive)
Cc1ccccc1-c1cc(=O)c2cc(C)c(C)c(C(=O)O)c2o1,> 100 µM (inactive),> 100 µM (inactive),> 100 µM (inactive),> 100 µM (inactive),> 100 µM (inactive),> 100 µM (inactive),,> 100 µM (inactive),> 100 µM (inactive),> 100 µM (inactive),> 100 µM (inactive),> 100 µM (inactive),> 100 µM (inactive),> 100 µM (inactive),> 100 µM (inactive),> 100,> 100 µM (inactive),> 100 µM (inactive)
O=C(NC(=O)c1cn(CCN2CCN(C(=O)NCCCCCCNC(=O)N3CCN(CCn4cc(C(=O)NC(=O)OCc5ccccc5)c(=O)[nH]c4=O)CC3)CC2)c(=O)[nH]c1=O)OCc1ccccc1,,> 100 µM (inactive),> 100 µM (inactive),> 100 µM (inactive),> 100 µM (inactive),,> 100 µM (inactive),,> 100 µM (inactive),> 100 µM (inactive),> 100 µM (inactive),> 100 µM (inactive),> 100 µM (inactive),> 100 µM (inactive),> 100 µM (inactive),> 100,> 100 µM (inactive),> 100 µM (inactive)
